Data on one molecule can be found in patent publication US20140271694A1, “ANTIGEN-SPECIFIC METHODS OF DIAGNOSING AND/OR TREATING MYOCARDITIS OR INFLAMMATORY CARDIOMYOPATHY” (Joslin Diabetes Center, Inc., priority 2013, published 2014).

“Also recorded” adds a separate entry of the source.

The test system of one assay is I-Ag7. The note with it: I-Ag7, dose dependent; cited from earlier work.
The next assay relates to DQ8. As to conditions: cited from earlier work.
Assay [1] relates to alpha myosin HC presentation to DQ8 molecules. The experiment in a line: Cardiac myosin-specific DQ8-restricted Clone E T cell hybridoma (BWZ.36.CE, lacZ/β-galactosidase readout) antigen presentation assay. The assay is classed as cell-based, human. The note with it: in vitro, dose-dependent, DQ8-expressing APCs. The text has this:
FIGS. 15A-C are data showing that the small molecule, tetraazatricyclododecane (TATD), that was predicted to bind pocket 6 of the DQ8 peptide-binding groove (Michels et al, Journal of immunology, 2011), inhibits cardiac myosin presentation by DQ8 to T cells. FIGS. 15A and B are graphs showing that T cell response to insulin B9:23 peptide, measured by IL-2 concentration, is blocked by TATD in a dose dependent manner, for DQ8 and I-Ag7 (Michels et al., Journal of Immunology, 2011). FIG. 15C is a graph showing that T cell response to cardiac myosin stimulation is blocked in vitro by TATD is a dose-dependent manner, in a manner similar to the blocking effect on insulin B9:23 presentation to DQ8. In this assay, T cell responses were measured using our cardiac myosin-specific DQ8-restricted (Clone E) T cell hybridoma that was engineered to produce β-galactosidase following T-cell receptor-antigen stimulation.
To assess the potential efficacy in the setting of post-infarct autoimmunity, we created a lacZ-inducible alpha myosin HC-specific CD4^+ T-cell hybridoma by fusing Clone E, a pathogenic DQ8-restricted CD4^+ T cell clone isolated from a myocarditic heart (Lv H et al., J Clin Invest, 2011) (FIGS. 14A-D), and BWZ.36 fusion partner (Karttunen J et al., Proc Natl Acad Sci USA, 1992), and successfully generated the hybrid, BWZ.36.CE. […]

Another assay deals with NOD mice. The note with it: cited from earlier work.

For the molecule `C1CN2CN3CCN(CN1C3)C2` [TATD, tetraazatricyclododecane], the “T cell response to insulin B9:23 peptide, measured by IL-2 concentration” value in the assay on I-Ag7 is recorded as “blocked”; with DQ8 (DQ8, dose dependent) it was “blocked”. Further, the “relative potency of blocking DQ8 versus I-Ag7 molecules” value in the assay on DQ8 (DQ8 compared with I-Ag7) is “more potently blocks DQ8 than I-A^g7”. Besides, the “block of alpha myosin HC presentation to DQ8 molecules (T cell response to cardiac myosin stimulation)” value in assay [1] is given as “completely block; also recorded: blocked”. The “preventing T1D in NOD mice” value in the assay on NOD mice is given as “efficacious”.
